Experimental data as given in US9606124B2, “Methods of detecting and treating stem-cell containing solid tumors” (The Regents of The University of Michigan, priority 2008, dated 2017).
“Also recorded” adds a separate entry of the source.

What was measured:
[1] = tested on: SUM159 cells; assay: TUNEL assay, apoptotic cells; type: cell-based, human; conditions: 4 days of treatment
Source text: (§1) Cell viability. […] After one day, treatment with repertaxin was started. […]. […] Nuclei were counterstained with DAPI/antifade (Invitrogen).

[2] = tested on: CXCR1-positive, CXCR1-negative and unsorted populations of SUM159 cells; assay: MTT assay on flow sorted CXCR1-positive, CXCR1-negative and unsorted populations; type: cell-based, human; conditions: for cell viability of the unsorted / unseparated population: SUM159 cells
Method: Cell viability. […] Nuclei were counterstained with DAPI/antifade (Invitrogen).
Flow cytometry analysis. […] CD95/FAS staining were performed utilizing an anti-CD95 labeled APC (1:20, BD biosciences). […] Fresh cells were stained with 1 μg/ml PI (Sigma) for 5 min for viability.

[3] = tested on: phospho-FAK and phospho-AKT; assay: Immunofluorescence staining of p-FAK and p-AKT in SUM159 cells; type: cell-based, human; conditions: for phospho-FAK and phospho-AKT expression (immunofluorescence): sorted CXCR1-positive cells
Method: The non-treated SUM159 cells presented 80% of cells positive in the cytoplasm for FOXOA3. […] The change in FOXOA3 cellular localation from the cytoplasm to the nucleus indicates an activation of FOXOA3 protein.
Immunostaining. For immunofluorescent staining, sorted CXCR1-positive cells were fixed with 95% methanol at −20° C. for 10 minutes. Cells were rehydrated in PBS and incubated with respective antibodies at room temperature for 1 hour. Primary antibodies used were P-FAK (1:50, Cell Signaling Technology), P-AKT (1:300, Cell Signaling Technology), and FOXO3a (1:250, Cell Signaling Technology). Slides were then washed and incubated 30 minutes with PE conjugated secondary antibodies (Jackson labs). The nuclei were counterstained with DAPI/antifade (Invitrogen) and coverslipped. […] Immunohistochemistry for the detection of ALDH1 (1:100, BD biosciences), P-FAK, P-AKT, FOXO3a expression was done on paraffin section (Ginestier et al. Am. J Pathol. 161:1223-1233, herein incorporated by reference in its entirety). Staining was done utilizing the Histostainplus kit (Zymed laboratories). Diaminobenzidine (DAB) or 3-amino-9-ethylcarbazole (AEC) was used as chromogen and sections were counterstained with hematoxylin.

[4] = tested on: ALDEFLUOR-positive population of HCC1954; assay: ALDEFLUOR assay on HCC1954 cells in vitro; type: cell-based, human; conditions: three days, repertaxin 100 nM, antibodies 10 μg/ml
Method: ALDEFLUOR assay. […] In order to eliminate cells of mouse origin from the xenotransplanted tumors, cell population was stained with an anti-H2Kd antibody (BD biosciences, 1/200, 20 min on ice) followed by staining with a secondary antibody labeled with phycoerythrin (PE) (Jackson labs, 1/250, 20 min on ice).

[5] = tested on: MDA-MB-453 cells; assay: MTT assay, cell viability of MDA-MB-453 cells; type: cell-based, human; conditions: MDA-MB-453 (PTEN mutation), repertaxin 100 nM
Source text: as §1

[6] = tested on: HCC1954 cells; assay: Metastasis formation after intracardiac injection of HCC1954 cells (bioluminescence); type: in vivo, NOD/SCID mice; conditions: 250,000 cells intracardiac, repertaxin 15 mg/kg s.c. twice a day 28 days vs saline
Method: Intracardiac inoculation. […] Twelve hours after intracardiac injections, mice were begun on twice per day repertaxin injections or saline for the controls. Bioluminescence detection. Baseline bioluminescence was assessed before inoculation and each week thereafter inoculations. Bioluminescence detection procedures was performed as previously described ([…] et al. Cancer Res. 69:1302-1313, herein incorporated by reference in its entirety). Normalized photon flux represents the ratio of the photon flux detected each week after inoculations and the photon flux detected before inoculation.

[7] = tested on: cells from primary tumors SUM159, MC1, UM2, UM3; assay: Re-implantation of cells from treated tumors into secondary mice; type: in vivo, NOD/SCID mice; conditions: for secondary tumor formation / regrowth from serial dilutions of treated primary tumors: secondary NOD/SCID mice, no further treatment
Method: Animal model. […] Cells from these tumors were transplanted orthotopically in the humanized cleared fat-pad of NOD/SCID mice, without cultivation in vitro. […] 50,000 cells from each xenotransplants were injected in the humanized fat pad of NOD/SCID mice and monitored the tumor growth. […] The animals were euthanized when the tumors were approximately 1.5 cm in the largest diameter, to avoid tumor necrosis and in compliance with regulations for use of vertebrate animal in research. A portion of each fat pad injected was fixed in formalin and embedded in paraffin for histological analysis. The rest of the tumor cells were re-implantated into secondary NOD/SCID mice. […]

Question: How did the “apoptotic cells (TUNEL)” value [1] turn out when `CC(C)Cc1ccc([C@@H](C)C(=O)NS(C)(=O)=O)cc1` [Repertaxin] was run?
Answer: 36%

Question: And the “cell viability of the unsorted / unseparated population” value [2]?
Answer: massive cell death

Question: And the “cell viability of the unsorted / unseparated population” value ([2]; listed as repertaxin)?
Answer: decrease in cell viability

Question: And the “cell viability of the CXCR1-negative population” value ([2]; sorted SUM159 cells)?
Answer: no effect

Question: What about the “cell viability of the CXCR1-positive population” value ([2]; sorted SUM159 cells) of the same molecule?
Answer: decreased cell viability

Question: And the “cell viability of the CXCR1-positive population” value ([2]; sorted SUM159 cells, listed as repertaxin)?
Answer: decrease in cell viability

Question: And the “p-FAK and p-AKT (immunofluorescence)” value ([3]; SUM159, 100 nM, 2 days)?
Answer: complete inactivation

Question: What about the “phospho-FAK and phospho-AKT expression (immunofluorescence)” value [3] of the same molecule?
Answer: disappearance of phospho-FAK

Question: What about the “phospho-FAK and phospho-AKT expression (immunofluorescence)” value ([3]; listed as repertaxin) of the same molecule?
Answer: dramatic decrease of phospho-FAK and phospho-AKT expression

Question: And the ALDEFLUOR-positive population [4]?
Answer: significant reduction

Question: What about the “cell viability (MTT)” value [5] of the same molecule?
Answer: no effect; also recorded: did not have any effect on cell viability

Question: What about the “cell viability (MTT)” value ([5]; listed as repertaxin) of the same molecule?
Answer: did not effect the viability

Question: And the “metastasis formation (normalized photon flux)” value [6]?
Answer: significantly reduced metastasis formation

Question: What about the “metastasis formation (normalized photon flux)” value ([6]; listed as repertaxin) of the same molecule?
Answer: statistically significant decrease in metastasis formation

Question: And the “reduction in tumor growth in secondary mice compared to cells from control or docetaxel-treated animals” value ([7]; equal numbers of cells injected)?
Answer: 2-5 fold

Question: What about the Tumors/Injections ([7]; number of cells injected 100) of the same molecule?
Answer: 0/9

Question: What about the Tumors/Injections ([7]; number of cells injected 250) of the same molecule?
Answer: 0/2

Question: And the Tumors/Injections ([7]; number of cells injected 500)?
Answer: 1/3

Question: What about the Tumors/Injections ([7]; number of cells injected 1,000) of the same molecule?
Answer: 4/8

Question: And the Tumors/Injections ([7]; number of cells injected 2,500)?
Answer: 2/2

Question: And the Tumors/Injections ([7]; number of cells injected 5,000)?
Answer: 2/2

Question: What about the Tumors/Injections ([7]; number of cells injected 10,000) of the same molecule?
Answer: 4/4

Question: What about the “secondary tumor formation / regrowth from serial dilutions of treated primary tumors” value [7] of the same molecule?
Answer: reduced tumor growth in secondary recipients; also recorded: only higher numbers of cells

Question: And the “secondary tumor formation / regrowth from serial dilutions of treated primary tumors” value ([7]; listed as Reperatxin)?
Answer: delayed secondary tumors which were significantly smaller in size
